Values quoted from earlier work in article PMC7456637, “Pharmacokinetic characterization of fluorocoxib D, a cyclooxygenase-2-targeted optical imaging agent for detection of cancer” (Journal of Biomedical Optics, 2020).

Key:
[1] = dog, in vivo, po, 2 mg/kg; cited from earlier work
RAW264.7 macrophages = tested on: RAW264.7 macrophages; parameters: method as in PMID 20430759; conditions: cited from earlier work
COX2 = conditions: cited from earlier work
[2] = administrated orally; cited from earlier work
COX1 = conditions: cited from earlier work

| Structure (SMILES) | Elimination t1/2 [1] [h] | IC50 (RAW264.7 macrophages) [nM] | IC50 (COX2) [µM] | Bioavailability [2] [%] | IC50 (COX1) [nM] |
| --- | --- | --- | --- | --- | --- |
| CCc1ccc(Nc2c(F)c(F)cc(F)c2F)c(CC(=O)O)c1 [robenacoxib] | 1.1 |  |  |  |  |
| COc1ccc2c(c1)c(CC(=O)O)c(C)n2C(=O)c1ccc(Cl)cc1 [Indomethacin, reference compound] |  | 10 | […] | 100 | […] |
